Measured values from patent publication US10316039B2, “P2X3 and/or P2X2/3 compounds and methods” (Asana Biosciences, LLC, priority 2013, dated 2019).

System: acetic acid-induced writhing (visceral pain)
Assay: Acetic acid induced writhing test
Type: in vivo
Conditions: mouse, 20, 40 and 60 mg/kg oral gavage, 30 min before i.p. acetic acid, counted 15 min
Procedure: FIG. 4 illustrates the antinociceptive effects of the compound of example 22 in a mouse model of visceral pain. The compound of example 22 was administered by oral gavage at 3 dose levels (20, 40 and 60 mg/kg) 30 min prior to an intraperitoneal injection of a dilute acetic acid solution. When injected into the abdominal cavity, acetic acid induces a distinctive stretching response in the abdomen and at least one hind limb that is assumed to reflect a response to visceral pain. […] Statistical significance is indicated with respect to the vehicle control group and was performed using a one-way ANOVA followed by Dunnett's multiple comparison test. Swiss albino mice of 30-40 g were included in the study. The mice were given an intraperitoneal injection of 0.7% v/v acetic acid solution at an injection volume of 10 mL/kg, 30 min after oral administration of vehicle or test article control. Test articles were administered, typically, at doses between 20 and 60 mg/kg. The mice were placed individually into glass chambers. The number of writhes produced in these animals was counted for 15 min following acetic acid administration. For scoring purposes writhing was indicated by stretching of the abdomen with simultaneous stretching of at least one hind limb. See, e.g., FIG. 4. Statistical analysis was done with One way ANOVA followed by Dunnett's multiple comparison tests. […]

With `CCc1cnnn1-c1cc(C(=O)NCc2ccc(C)nc2)cn2c(-c3ccc(C)s3)cnc12` [Example 22] the “pain responses (writhes) after acetic acid” value was “clear dose-related reduction in the pain responses”.
